# Results as given in patent US8278453B2, “Quinolizidinone M1 receptor positive allosteric modulators” (Merck Sharp & Dohme Corp., priority 2008, dated 2012).
# pEC50: −log10 of the molar value.
# Biological target: T1, acetylcholine muscarinic M1 receptor (Homo sapiens, UniProt P11229)
# T1 construct: expressed in transfected cells; host or cells: CHOnfat (CHO cells expressing NFAT), line CHOnfat/hM1
# T1 sequence (P11229 1-460): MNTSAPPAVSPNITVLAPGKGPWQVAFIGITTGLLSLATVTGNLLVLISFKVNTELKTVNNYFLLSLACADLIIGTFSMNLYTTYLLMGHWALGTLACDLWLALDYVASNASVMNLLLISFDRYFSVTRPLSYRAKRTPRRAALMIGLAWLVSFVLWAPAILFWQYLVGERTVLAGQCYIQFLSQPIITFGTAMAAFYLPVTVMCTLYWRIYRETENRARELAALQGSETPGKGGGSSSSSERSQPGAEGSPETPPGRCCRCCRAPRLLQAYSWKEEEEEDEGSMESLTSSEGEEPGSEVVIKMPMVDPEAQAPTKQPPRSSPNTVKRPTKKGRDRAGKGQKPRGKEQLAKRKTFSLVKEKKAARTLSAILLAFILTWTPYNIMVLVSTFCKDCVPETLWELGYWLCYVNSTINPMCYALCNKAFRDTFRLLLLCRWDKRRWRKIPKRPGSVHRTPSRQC
# Test: muscarinic M1 FLIPR intracellular calcium assay (positive allosteric modulation, EC20 acetylcholine)
# Type: cell-based
# Settings: inflection point from FLIPR values; CHOnfat/hM1 cells; 4 min preincubation, then EC20 acetylcholine (3 nM final); read-out: IP Value
# Protocol: The assay studies the effect of one or several concentrations of test compounds on basal or acetylcholine-stimulated Ca^2+ levels using FLIPR.
# Compounds are prepared and subjected to a preincubation period of 4 min. Thereafter, a single EC20 concentration of acetylcholine is added to each well (3 nM final). The intracellular Ca^2+ level of each sample is measured and compared to an acetylcholine control to determine any modulatory activity.
# Cells: CHOnfat/hM1, hM2, hM3 or hM4 cells are plated 24 hr before the assay at a density of 18,000 cells/well (100 μL) in a 384 well plate. CHOnfat/hM1 and CHOnfat/hM3 Growth Medium: 90% DMEM (Hi Glucose); 10% HI FBS; 2 mM L-glutamine; 0.1 mM NEAA; Pen-Strep; and 1 mg/ml Geneticin, are added. For M2Gqi5CHOnfat and M4Gqi5CHOnfat cells, an additional 600 μg/ml hygromycin is added.
# Equipment: 384 well plate, 120 μL addition plate; 96-well Whatman 2 ml Uniplate Incubator, 37° C., 5% CO2; Skatron EMBLA-384 Plate Washer; Multimek Pipetting System; Genesis Freedom 200 System; Mosquito System; Temo Nanolitre Pipetting System; and FLIPR^384 Fluorometric Imaging Plate Reader System are used.
# Buffers. Assay Buffer: Hanks Balanced Salt Solution, with 20 mM Hepes, 2.5 mM Probenecid (Sigma P-8761) first dissolved in 1N aqueous NaOH, 1% Bovine Serum Albumin (Sigma A-9647). Dye Loading Buffer: Assay Buffer plus 1% Fetal Bovine Serum and Fluo-4AM/Pluronic Acid Mixture. 2 mM Fluo-4AM ester stock in DMSO (Molecular Probes F-14202) Concentration of 2 μM in buffer for a final concentration of 1 μM in Assay. 20% Pluronic Acid Solution stock, with a concentration of 0.04% in Buffer, 0.02% in Assay.
# 65 μl of 2 mM Fluo-4AM are mixed with 130 μL of 20% Pluronic Acid. The resulting solution and 650 μL FBS is added to the assay buffer for a total volume of 65 mL. Positive Controls: 4-Br-A23187: 10 mM in DMSO; final concentration 10 μM. […]
# After 60 min, the cells are washed three times with 100 μL of buffer, leaving 30 μL of buffer in each well. […] A signal test to check background fluorescence and basal fluorescence signal is performed. […]
row,pEC50,Compound
1,6.67,"Cn1cc(-c2ccc(Cc3cc(C(=O)O)c(=O)n4ccccc34)nc2)cn1 [Example 5, 1-{[5-(1-Methyl-1H-pyrazol-4-yl)pyridin-2-yl]methyl}-4-oxo-4H-quinolizine-3-carboxylic acid]"
2,6.96,"O=C(O)c1cc(Cc2ccc(-c3ccccc3)cc2)c2ccccn2c1=O [Example 4, 1-(Biphenyl-4-ylmethyl)-4-oxo-4H-quinolizine-3-carboxylic acid]"
3,6.70,"O=C(O)c1cc(Cc2ccc(Cl)cc2)c2ccccn2c1=O [Example 3, 1-(4-Chlorobenzyl)-4-oxo-4H-quinolizine-3-carboxylic acid]"
